Assay results published in ChEMBL document CHEMBL4402510, “Caprazamycins: Promising lead structures acting on a novel antibacterial target MraY” (Eur J Med Chem, 2019).
pIC50: −log10 of the molar value. Values after ≈ are worked out from the molar mass of the structure shown.

Assays:
[1] = target: T1, Phospho-N-acetylmuramoyl-pentapeptide-transferase (Aquifex aeolicus (strain VF5), UniProt O66465); assay: Inhibition of MraY in Aquifex aeolicus
T1 sequence (O66465 whole entry): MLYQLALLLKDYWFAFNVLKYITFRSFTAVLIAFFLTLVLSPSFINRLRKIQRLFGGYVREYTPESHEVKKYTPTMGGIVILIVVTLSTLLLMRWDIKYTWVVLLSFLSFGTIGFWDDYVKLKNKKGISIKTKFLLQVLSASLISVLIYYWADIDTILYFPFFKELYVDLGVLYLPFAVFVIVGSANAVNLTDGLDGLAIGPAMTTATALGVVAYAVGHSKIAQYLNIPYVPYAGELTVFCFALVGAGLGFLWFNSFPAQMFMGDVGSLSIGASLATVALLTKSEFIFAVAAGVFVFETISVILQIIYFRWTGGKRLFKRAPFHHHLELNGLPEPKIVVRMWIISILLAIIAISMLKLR

[2] = target: T2, Phospho-N-acetylmuramoyl-pentapeptide-transferase (Bacillus subtilis (strain 168), UniProt Q03521); assay: Inhibition of MraY in Bacillus subtilis
T2 sequence (Q03521 whole entry): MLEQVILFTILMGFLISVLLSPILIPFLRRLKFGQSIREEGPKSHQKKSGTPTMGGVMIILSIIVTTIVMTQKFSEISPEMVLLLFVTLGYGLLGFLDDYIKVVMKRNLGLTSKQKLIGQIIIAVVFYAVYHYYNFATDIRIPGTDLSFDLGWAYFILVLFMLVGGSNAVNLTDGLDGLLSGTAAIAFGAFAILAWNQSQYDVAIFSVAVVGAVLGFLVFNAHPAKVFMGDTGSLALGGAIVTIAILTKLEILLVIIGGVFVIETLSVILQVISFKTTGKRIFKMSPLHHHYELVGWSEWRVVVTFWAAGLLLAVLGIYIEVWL

[3] = system: Mycobacterium avium subsp. paratuberculosis; assay: Antibacterial activity against Mycobacterium avium subsp. paratuberculosis ATCC 43015; assay type: functional
[4] = Antibacterial activity against Mycobacterium avium subsp. avium ATCC 25291; assay type: functional
[5] = system: Mycobacterium tuberculosis; assay: Antibacterial activity against Mycobacterium tuberculosis H37Rv; assay type: functional
Mycolicibacterium phlei = assay: Antibacterial activity against Mycobacterium phlei; assay type: functional
[6] = system: Mycobacterium tuberculosis; assay: Antibacterial activity against Mycobacterium tuberculosis Kurono; assay type: functional
Mycolicibacterium vaccae = assay: Antibacterial activity against Mycobacterium vaccae ATCC 15483; assay type: functional
Staphylococcus aureus [7] = assay: Antibacterial activity against methicillin resistant Staphylococcus aureus No. 5; assay type: functional
Staphylococcus aureus [8] = assay: Antibacterial activity against Staphylococcus aureus FDA 209P; assay type: functional
[9] = system: Mycobacterium tuberculosis; assay: Antibacterial activity against Mycobacterium tuberculosis JCM 6384; assay type: functional
[10] = system: Mycolicibacterium smegmatis; assay: Antibacterial activity against Mycobacterium smegmatis ATCC 607; assay type: functional
Streptococcus pneumoniae = assay: Antibacterial activity against Streptococcus pneumoniae PCI 602; assay type: functional
Enterococcus faecium = assay: Antibacterial activity against Enterococcus faecium SR7917 (VRE); assay type: functional
Enterococcus faecalis [11] = assay: Antibacterial activity against Enterococcus faecalis SR7914 (VRE); assay type: functional
Staphylococcus aureus [12] = assay: Antibacterial activity against methicillin resistant Staphylococcus aureus SR3637; assay type: functional
Enterococcus faecalis [13] = assay: Antibacterial activity against Enterococcus faecalis ATCC 29212; assay type: functional
Staphylococcus aureus [14] = assay: Antibacterial activity against methicillin susceptible Staphylococcus aureus ATCC 29213; assay type: functional

Structure (SMILES): NC[C@H]1O[C@@H](O[C@@H](Cc2cn(CCCCCCCCCCO)nn2)[C@H]2O[C@@H](n3ccc(=O)[nH]c3=O)[C@H](O)[C@@H]2O)[C@H](O)[C@@H]1O
- pIC50 [1]: 4.40

Structure (SMILES): NC[C@H]1O[C@@H](O[C@@H](c2cn(CCCCCOc3ccc(C(=O)c4ccccc4)cc3)nn2)[C@H]2O[C@@H](n3ccc(=O)[nH]c3=O)[C@H](O)[C@@H]2O)[C@H](O)[C@@H]1O
- pIC50 [2]: 4.00

Structure (SMILES): NC[C@H]1O[C@@H](O[C@@H](c2cn(CCCCCN3CCCCC3)nn2)[C@H]2O[C@@H](n3ccc(=O)[nH]c3=O)[C@H](O)[C@@H]2O)[C@H](O)[C@@H]1O
- pIC50 [2]: 3.82

Structure (SMILES): NCCCCCCCCCn1cc(C[C@H](O[C@@H]2O[C@H](CN)[C@@H](O)[C@H]2O)[C@H]2O[C@@H](n3ccc(=O)[nH]c3=O)[C@H](O)[C@@H]2O)nn1
- pIC50 [1]: 3.70

Structure (SMILES): NC[C@H]1O[C@@H](O[C@@H](c2cn(CCCOc3ccc(C(=O)c4ccccc4)cc3)nn2)[C@H]2O[C@@H](n3ccc(=O)[nH]c3=O)[C@H](O)[C@@H]2O)[C@H](O)[C@@H]1O [listing 1 of 2 here]
- pIC50 [1]: 3.90
- pIC50 [2]: 4.00

Structure (SMILES): NC[C@H]1O[C@@H](O[C@@H](c2cn(CCCc3ccccc3)nn2)[C@H]2O[C@@H](n3ccc(=O)[nH]c3=O)[C@H](O)[C@@H]2O)[C@H](O)[C@@H]1O
- pIC50 [2]: 3.60

Structure (SMILES): NC[C@H]1O[C@@H](O[C@@H](c2cn(CCCCCCCCCCOc3ccc(C(=O)c4ccccc4)cc3)nn2)[C@H]2O[C@@H](n3ccc(=O)[nH]c3=O)[C@H](O)[C@@H]2O)[C@H](O)[C@@H]1O
- pIC50 [2]: 3.90

Structure (SMILES): NC[C@H]1O[C@@H](O[C@@H](c2cn(CCCOc3ccc(C(=O)c4ccccc4)cc3)nn2)[C@H]2O[C@@H](n3ccc(=O)[nH]c3=O)[C@H](O)[C@@H]2O)[C@H](O)[C@@H]1O [listing 2 of 2 here]
- pIC50 [2]: 4.00

Structure (SMILES): CCCCCCCCCCn1cc([C@H](O[C@@H]2O[C@H](CN)[C@@H](O)[C@H]2O)[C@H]2O[C@@H](n3ccc(=O)[nH]c3=O)[C@H](O)[C@@H]2O)nn1
- pIC50 [2]: 3.85

Structure (SMILES): NCCCCCn1cc([C@H](O[C@@H]2O[C@H](CN)[C@@H](O)[C@H]2O)[C@H]2O[C@@H](n3ccc(=O)[nH]c3=O)[C@H](O)[C@@H]2O)nn1
- pIC50 [2]: < 3.00

Structure (SMILES): NC[C@H]1O[C@@H](O[C@@H](c2cn(CCCO)nn2)[C@H]2O[C@@H](n3ccc(=O)[nH]c3=O)[C@H](O)[C@@H]2O)[C@H](O)[C@@H]1O
- pIC50 [2]: < 3.00

Structure (SMILES): NC[C@H]1O[C@@H](O[C@@H](c2cn(C3CCCCCC3)nn2)[C@H]2O[C@@H](n3ccc(=O)[nH]c3=O)[C@H](O)[C@@H]2O)[C@H](O)[C@@H]1O
- pIC50 [2]: < 3.00

Structure (SMILES): CCCCCCCCCCCCCCCCNC(=O)C1=CCN(C)[C@@H]([C@H](O[C@@H]2O[C@H](CN)[C@@H](O)[C@H]2O)[C@H]2O[C@@H](n3ccc(=O)[nH]c3=O)[C@H](O)[C@@H]2O)C(=O)N1C
- MIC [3]: 6.25 µg/mL (≈ 8 µM)
- MIC [4]: 3.13 µg/mL (≈ 4.01 µM)
- MIC [5]: 3.13 µg/mL (≈ 4.01 µM)
- MIC (Mycolicibacterium phlei): > 100 µg/mL
- MIC [6]: 3.13 µg/mL (≈ 4.01 µM)
- MIC (Mycolicibacterium vaccae): > 100 µg/mL
- MIC (Staphylococcus aureus [7]): 1.56 µg/mL (≈ 2 µM)
- MIC (Staphylococcus aureus [8]): 0.78 µg/mL (≈ 0.999 µM)
- MIC [9]: 3.13 µg/mL (≈ 4.01 µM)
- MIC [10]: 0.78 µg/mL (≈ 0.999 µM)
- MIC (Streptococcus pneumoniae): 1.56 µg/mL (≈ 2 µM)

Structure (SMILES): CCCCCCCCCCCCCCCC(=O)NC[C@@H]1CC2[C@H](C(=O)N1CCCNC(=N)N)[C@@H]([C@H]1O[C@@H](n3ccc(=O)[nH]c3=O)[C@H](O)[C@@H]1O)ON2CCCN (single isomer, unassigned)
- MIC (Enterococcus faecium): 8 µg/mL (≈ 10.3 µM)
- MIC (Enterococcus faecalis [11]): 16 µg/mL (≈ 20.6 µM)
- MIC (Staphylococcus aureus [12]): 16 µg/mL (≈ 20.6 µM)
- MIC (Enterococcus faecalis [13]): 16 µg/mL (≈ 20.6 µM)
- MIC (Staphylococcus aureus [14]): 16 µg/mL (≈ 20.6 µM)

Structure (SMILES): C#C[C@H](O[C@@H]1O[C@H](CN)[C@@H](O)[C@H]1O)[C@H]1O[C@@H](n2ccc(=O)[nH]c2=O)[C@H](O)[C@@H]1O
- pIC50 [2]: 4.00

Structure (SMILES): CCCCCCCCCCCCCCC[C@H](NC(=O)[C@@H](N)CCCNC(=N)N)C(=O)NC[C@@H]1CC[C@H]2C(C(=O)N1)[C@H]([C@H]1O[C@@H](n3ccc(=O)[nH]c3=O)[C@H](O)[C@@H]1O)ON2CCCN (single isomer, unassigned)
- MIC (Enterococcus faecium): 8 µg/mL (≈ 9.11 µM)
- MIC (Enterococcus faecalis [11]): 16 µg/mL (≈ 18.2 µM)
- MIC (Staphylococcus aureus [12]): 32 µg/mL (≈ 36.4 µM)
- MIC (Enterococcus faecalis [13]): 16 µg/mL (≈ 18.2 µM)
- MIC (Staphylococcus aureus [14]): 16 µg/mL (≈ 18.2 µM)

Structure (SMILES): CCCCCCCCCCCCCCCC(=O)NC[C@@H]1CC[C@H]2C(C(=O)N1CCCNC(=N)N)[C@H]([C@H]1O[C@@H](n3ccc(=O)[nH]c3=O)[C@H](O)[C@@H]1O)ON2CCCN (single isomer, unassigned)
- MIC (Enterococcus faecium): 16 µg/mL (≈ 20.2 µM)
- MIC (Enterococcus faecalis [11]): 16 µg/mL (≈ 20.2 µM)
- MIC (Staphylococcus aureus [12]): 16 µg/mL (≈ 20.2 µM)
- MIC (Enterococcus faecalis [13]): 16 µg/mL (≈ 20.2 µM)
- MIC (Staphylococcus aureus [14]): > 64 µg/mL
